Measurements reported in patent publication US20230255969A1, “TARGETING IMMUNE P[…] BY HIGHLY PATHOGENIC CORONAVIRUSES” (priority 2020, published 2023).

System: bone marrow derived mast cells (BMMCs)
Assay type: cell-based, C57Bl/6 mouse

## O=C(O)c1cc(=O)c2c(OCC(O)COc3cccc4oc(C(=O)O)cc(=O)c34)cccc2o1 [cromolyn, 5-[3-(2-carboxy-4-oxochromen-5-yl)oxy-2-hydroxypropoxy]-4-oxochromene-2-carboxylic acid]
  Mast cell degranulation in response to SARS-CoV-2 Spike protein (percentage degranulation): reduced
